For data set [1] the following is noted: human, in vivo.
The next data set in a line: clinical. The following applies: female, human, in vivo, po.
For data set [2] the following is noted: pharmacokinetics reported as unaffected; cited from earlier work.

“Also recorded” adds a separate entry of the source. Read-outs that look alike come from different tables or passages of the source.

This is an account of results in PMC4268426 (Contraception, 2014).

As for `C#C[C@]1(O)CC[C@H]2[C@@H]3CCC4=CC(=O)CC[C@@H]4[C@H]3CC[C@@]21C` [norethindrone], for the setting “either group (control and treatment)”, the adverse events entry is “no reports of adverse events”. For the setting “female, human, in vivo, po, 0.35 mg”, the concentration at 24 h was determined as 0.27 ng/mL. Also, the change in half-life result (treatment group compared to control group) is on record as “unaltered; also recorded: no alteration; also recorded: no change”. Moreover, in data set [1] (female), the “increase in AUC0-24” value was 50% and the “increase in AUC0-∞” value is given as 35%. Besides, the Cmax in data set [1] (female, po, 0.35 mg) is on record as 2.09 (1.49-3.06) ng/mL. Moreover, the CL/F in data set [1] (po) is given as 7.59 (6.22-10.00) L/hr. Besides, the CL/F in data set [1] (po, 0.35 mg) was 10.35 (8.55-12.38) L/hr. Besides, in “clinical”, the time of peak concentration (Tmax) – broadly, the time from dosing to the highest level – was determined as 1.32 h and the Vd/F (as a rule, the volume of distribution divided by bioavailability) was 313 L. Further, in “clinical” (0.35 mg), the AUC(0-inf) (commonly total exposure, with the tail of the curve extrapolated) worked out at 33.8 ng·h/mL; the AUC(0-t) – broadly, exposure summed from dosing to a finite time, without extrapolation to infinity – came to 16.7 ng·h/mL; the Tmax stood at 1.86 h; the Vd/F is 564 L. In data set [2], the “decrease in AUC with obesity (trend)” value is ~ 20% and the “decrease in Cmax with obesity (trend)” value is given as ~ 20%.
